Measured values as given in patent US12383549B2, “Combination therapy of crenolanib and apoptosis pathway agents for the treatment of proliferative disorders” (Arog Pharmaceuticals, Inc., priority 2020, dated 2025).

How the values were obtained:
[1] = test system: PDGFR, FLT3, and TRK kinases; conditions: versus other kinases, including c-KIT, VEGFR2, TIE2, FGFR2, EGFR, ERBB2, and SRC; cited from earlier work
[2] = test system: PB and BM blasts of leukemia patients; conditions: cited from earlier work
[3] = test system: relapsed or refractory AML patients with activating FLT3 mutations (FLT3-ITD); assay: Clinical trial NCT02400281: oral crenolanib besylate in combination with intravenous azacitidine, single-patient case reports; type: in vivo, human
Description: For the majority of patients, the clinical response is short-lived. Response criteria for AML clinical trials are adapted from the International Working Group for AML (Cheson, Bennett et al. 2003). Responders are patients who obtain a Complete Response (CR), Complete Response with incomplete blood count recovery (CRi), or Partial Remission (PR). Briefly, criteria are as follows: • 1. Complete Remission (CR): • a. Peripheral blood counts: • i. No circulating blasts • ii. Neutrophil count ≥1.0×10^9/L • iii. Platelet count ≥100×10^9/L • b. Bone marrow aspirate and biopsy: • i. ≤5% blasts • ii. No Auer Rods • iii. No extramedullary leukemia • 2. Complete remission with incomplete blood count recovery (CRi): • a. Peripheral blood counts: • i. No circulating blasts • ii. Neutrophil count <1.0×10^9/L, or • iii. Platelet count <100×10^9/L • b. Bone marrow aspirate and biopsy • i. ≤5% blasts • ii. No Auer Rods • iii. No extramedullary leukemia • 3. Partial remission: • a. All CR criteria if abnormal before treatment except: • b. ≥50% reduction in bone marrow blast but still >5%
(§1) To overcome the poor prognosis of the persistent FLT3-ITD mutation, the patient was provided oral crenolanib besylate in combination with intravenous azacitidine on a clinical trial for relapsed or refractory AML patients with activating FLT3 mutations (NCT02400281). At baseline, the patient presented with 64% bone marrow blasts. The patient began treatment with 75 mg/m^2/day of azacitidine for 7 days and 60 mg of oral crenolanib besylate three times daily for the remainder of the 28 days cycle.
as §1, with “13%” for “64%”, “80” for “60”, “daily.” for “daily for the remainder of the 28 days cycle.”

Question: With `CC1(COc2ccc3c(c2)ncn3-c2ccc3cccc(N4CCC(N)CC4)c3n2)COC1` [crenolanib] as the compound, how does the “selectivity for PDGFR, FLT3, and TRK kinases” value [1] read?
Answer: Its value is “significantly more selective”.

Question: With `CNC(=O)c1cc(Oc2ccc(NC(=O)Nc3ccc(Cl)c(C(F)(F)F)c3)cc2)ccn1` [sorafenib] as the compound, how does the “bone marrow (BM) blast reduction” value [2] read?
Answer: The value was “only modest BM blast reductions”.

Question: For `CC1(COc2ccc3c(c2)ncn3-c2ccc3cccc(N4CCC(N)CC4)c3n2)COC1` [crenolanib besylate], which bone marrow blasts ([3]; Example 1: person, FLT3-ITD relapsed AML, baseline 64% blasts, azacitidine 75 mg/m^2/day for 7 days + crenolanib besylate 60 mg oral three times daily, after 27 days) is on record?
Answer: The bone marrow blasts was 3%.

Question: And the clinical response ([3]; Example 1: same patient and regimen with azacitidine, after 27 days, neutrophils recovered, platelets partially recovered)?
Answer: The clinical response was “CRi”.

Question: And the bone marrow blasts ([3]; Example 2: person, FLT3-ITD AML relapsed after transplant, baseline 13% blasts, azacitidine 75 mg/m^2/day for 7 days + crenolanib besylate 80 mg oral three times daily, after 28 days)?
Answer: The bone marrow blasts was 1%.

Question: And the clinical response ([3]; Example 2: same patient and regimen with azacitidine, after 28 days)?
Answer: Its clinical response is “morphological leukemia free state”.

Question: What about the “clinical response on continued single agent therapy” value ([3]; Example 2: single agent crenolanib besylate for an additional 28 days) of the same compound?
Answer: Its value is “maintained a MLFS”.
